Our source for the Kd values is publication PMC3203118, “Elucidation of the ATP7B N-Domain Mg^2+-ATP Coordination Site and Its Allosteric Regulation” (PLoS ONE, 2011).

Assay in all cases: surface plasmon resonance (BIAcore), protein immobilised on CM4 chip
For orientation: Surface plasmon resonance follows binding to a sensor surface in real time, without labels.

For experiment [1], the target named is T1, ATP7B N-domain (Nucleotide binding domain) (Homo sapiens, UniProt P35670).
T1 construct: covalently immobilised on CM4 sensor chip
T1 sequence (P35670 1036-1196): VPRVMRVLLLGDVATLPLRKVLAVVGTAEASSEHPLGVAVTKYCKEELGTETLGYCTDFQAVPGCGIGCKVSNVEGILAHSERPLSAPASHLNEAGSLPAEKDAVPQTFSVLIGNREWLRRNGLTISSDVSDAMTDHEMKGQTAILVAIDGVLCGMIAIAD
To be noted: read-out: Kd (μM) / ATP. An excerpt: (§1) surface plasmon resonance (BIAcore), protein immobilised on CM4 chip on ATP7B N-domain (Nucleotide binding domain)

The target in experiment [2] is T2, ATP7B N-domain (Nucleotide binding domain) (Homo sapiens, UniProt P35670, D1167A).
T2 construct: covalently immobilised on CM4 sensor chip
T2 sequence (P35670 1036-1196 D1167A): T1 sequence (P35670 1036-1196) with D132A
To be noted: read-out: Kd (μM) / ATP.
Source text: as §1

The target of experiment [3] is T3, ATP7B N-domain (Nucleotide binding domain) (Homo sapiens, UniProt P35670, D1167A/D1171A/E1152A).
T3 construct: covalently immobilised on CM4 sensor chip
T3 sequence (P35670 1036-1196 E1152A/D1167A/D1171A): T1 sequence (P35670 1036-1196) with E117A, D132A, D136A
Source text: as §1

Experiment [4] addresses T4, ATP7B N-domain (Nucleotide binding domain) (Homo sapiens, UniProt P35670, D1171A).
T4 construct: covalently immobilised on CM4 sensor chip
T4 sequence (P35670 1036-1196 D1171A): T1 sequence (P35670 1036-1196) with D136A
The following applies: read-out: Kd (μM) / ATP.
Source text: as §1

Experiment [5] deals with T5, ATP7B N-domain (Nucleotide binding domain) (Homo sapiens, UniProt P35670, DEL1121-1137).
T5 construct: covalently immobilised on CM4 sensor chip
T5 sequence (P35670 with tags, fused parts or gaps DEL1121-1137): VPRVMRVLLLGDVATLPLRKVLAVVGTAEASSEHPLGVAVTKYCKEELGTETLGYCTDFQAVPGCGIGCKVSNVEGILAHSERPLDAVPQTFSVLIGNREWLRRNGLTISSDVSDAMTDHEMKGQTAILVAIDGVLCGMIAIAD
Source text: as §1

Experiment [6] deals with T6, ATP7B N-domain (Nucleotide binding domain) (Homo sapiens, UniProt P35670, E1152A).
T6 construct: covalently immobilised on CM4 sensor chip
T6 sequence (P35670 1036-1196 E1152A): T1 sequence (P35670 1036-1196) with E117A
To be noted: read-out: Kd (μM) / ATP.
Source text: as §1

The target of experiment [7] is T7, ATP7B N-domain (Nucleotide binding domain) (Homo sapiens, UniProt P35670, H1069Q).
T7 construct: covalently immobilised on CM4 sensor chip
T7 sequence (P35670 1036-1196 H1069Q): T1 sequence (P35670 1036-1196) with H34Q
The following applies: read-out: Kd (μM) / ATP.
Source text: as §1

Experiment [8] has as its target T8, ATP7B N-domain (Nucleotide binding domain) (Homo sapiens, UniProt P35670, N1150A).
T8 construct: covalently immobilised on CM4 sensor chip
T8 sequence (P35670 1036-1196 N1150A): T1 sequence (P35670 1036-1196) with N115A
The following applies: read-out: Kd (μM) / ATP.
Source text: as §1

Changes are numbered by the printed parent chain.

As for `Nc1ncnc2c1ncn2[C@@H]1O[C@H](COP(=O)(O)OP(=O)(O)OP(=O)(O)O)[C@@H](O)[C@H]1O` [ATP], the Kd in experiment [1] was 74.2 ± 2.52 µM; in experiment [2] it was 96.9 ± 3.91 µM; in experiment [3] it was more than 1000 µM; in experiment [4], 81.1 ± 3.16 µM; in experiment [5] it was more than 1000 µM; in experiment [6], 174 ± 3.82 µM. For the same molecule, the Kd in experiment [7] amounted to 76.5 ± 1.72 µM; in experiment [8], 82.7 ± 4.16 µM.
